Laboratory results reported in paper PMC8282008, “Brigatinib causes tumor shrinkage in both NF2-deficient meningioma and schwannoma through inhibition of multiple tyrosine kinases but not ALK” (PLoS ONE, 2021).

Key:
Assay type in all cases: cell-based
[1] = target: T1, FAK1 (PTK2, focal adhesion kinase 1) (Homo sapiens, UniProt Q05397); test: NanoBRET TE intracellular kinase assay with K-10 tracer in HEK293T cells
T1 construct: NanoLuc fusion (Promega NV1921)

[2] = target: T2, FER (Fps/Fes-related kinase) (Homo sapiens, UniProt P16591); test: as above
T2 construct: NanoLuc fusion (Promega NV1331)
T2 sequence (P16591 whole entry, the tested form may be a part): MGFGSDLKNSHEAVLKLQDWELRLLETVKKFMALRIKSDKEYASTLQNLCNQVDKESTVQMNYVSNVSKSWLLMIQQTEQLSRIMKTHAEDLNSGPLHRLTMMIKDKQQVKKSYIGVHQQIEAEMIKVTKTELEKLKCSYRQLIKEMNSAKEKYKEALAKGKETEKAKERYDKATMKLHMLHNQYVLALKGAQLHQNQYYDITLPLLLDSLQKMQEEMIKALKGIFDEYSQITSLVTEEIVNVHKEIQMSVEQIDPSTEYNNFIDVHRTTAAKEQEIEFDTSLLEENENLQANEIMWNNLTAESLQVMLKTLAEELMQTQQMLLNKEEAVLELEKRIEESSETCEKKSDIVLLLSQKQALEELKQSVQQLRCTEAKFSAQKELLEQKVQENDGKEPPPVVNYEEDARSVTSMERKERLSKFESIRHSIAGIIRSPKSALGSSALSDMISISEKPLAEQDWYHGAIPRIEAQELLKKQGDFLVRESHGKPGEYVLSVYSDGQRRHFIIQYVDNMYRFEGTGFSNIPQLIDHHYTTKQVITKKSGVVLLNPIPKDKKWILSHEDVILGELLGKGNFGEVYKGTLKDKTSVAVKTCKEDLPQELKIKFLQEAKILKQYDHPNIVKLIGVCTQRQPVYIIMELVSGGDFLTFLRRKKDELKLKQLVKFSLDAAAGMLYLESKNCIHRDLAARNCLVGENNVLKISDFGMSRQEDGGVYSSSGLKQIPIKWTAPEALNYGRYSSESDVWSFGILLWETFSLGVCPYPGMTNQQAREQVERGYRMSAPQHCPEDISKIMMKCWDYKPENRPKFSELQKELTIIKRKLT

[3] = target: T3, GAK (Cyclin G-associated kinase) (Homo sapiens, UniProt O14976); test: as above
T3 construct: NanoLuc fusion (Promega NV1421)
T3 sequence (O14976 1-1311): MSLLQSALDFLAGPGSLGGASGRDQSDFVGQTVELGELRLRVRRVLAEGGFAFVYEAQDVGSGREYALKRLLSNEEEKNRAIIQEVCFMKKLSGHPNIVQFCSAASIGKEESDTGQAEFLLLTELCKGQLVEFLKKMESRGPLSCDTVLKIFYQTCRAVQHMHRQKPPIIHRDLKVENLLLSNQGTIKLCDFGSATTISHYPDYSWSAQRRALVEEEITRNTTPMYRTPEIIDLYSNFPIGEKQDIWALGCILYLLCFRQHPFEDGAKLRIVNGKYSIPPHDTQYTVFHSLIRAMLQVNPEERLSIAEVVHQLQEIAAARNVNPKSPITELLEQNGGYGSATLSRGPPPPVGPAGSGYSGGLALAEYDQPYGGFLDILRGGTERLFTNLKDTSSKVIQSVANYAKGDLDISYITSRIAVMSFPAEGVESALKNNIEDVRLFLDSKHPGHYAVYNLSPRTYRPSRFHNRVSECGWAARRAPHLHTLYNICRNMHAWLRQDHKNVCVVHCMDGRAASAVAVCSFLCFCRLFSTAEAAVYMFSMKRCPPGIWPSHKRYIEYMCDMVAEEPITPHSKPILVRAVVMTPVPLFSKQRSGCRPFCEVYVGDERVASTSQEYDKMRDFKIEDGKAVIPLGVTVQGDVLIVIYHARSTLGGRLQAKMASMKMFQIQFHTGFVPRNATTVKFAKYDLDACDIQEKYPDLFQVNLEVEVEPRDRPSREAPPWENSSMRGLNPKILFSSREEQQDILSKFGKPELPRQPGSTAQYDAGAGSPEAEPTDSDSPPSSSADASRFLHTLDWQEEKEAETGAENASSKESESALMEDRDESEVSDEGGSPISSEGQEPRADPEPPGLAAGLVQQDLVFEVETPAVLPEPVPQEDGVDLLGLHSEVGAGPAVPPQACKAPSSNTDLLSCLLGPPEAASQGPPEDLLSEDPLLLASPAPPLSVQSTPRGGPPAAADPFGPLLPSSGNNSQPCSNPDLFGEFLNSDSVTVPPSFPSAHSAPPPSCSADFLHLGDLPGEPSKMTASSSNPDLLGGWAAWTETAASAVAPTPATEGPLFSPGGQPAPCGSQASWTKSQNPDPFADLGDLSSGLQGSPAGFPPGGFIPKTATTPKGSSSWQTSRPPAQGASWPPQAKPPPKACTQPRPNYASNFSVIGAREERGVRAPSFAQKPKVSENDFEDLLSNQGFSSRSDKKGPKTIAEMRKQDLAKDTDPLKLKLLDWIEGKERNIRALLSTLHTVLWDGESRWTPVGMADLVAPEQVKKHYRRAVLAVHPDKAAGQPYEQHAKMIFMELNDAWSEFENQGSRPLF

FAK2 (PTK2B) = FAK2 (PTK2B) (Homo sapiens, UniProt Q14289); test: MIB/MS kinome profiling, HS01/HS11 Schwann cells, […] (text: lysate treatment; legend: cells treated […] h)
Chain of FAK2 (PTK2B) (Q14289 whole entry): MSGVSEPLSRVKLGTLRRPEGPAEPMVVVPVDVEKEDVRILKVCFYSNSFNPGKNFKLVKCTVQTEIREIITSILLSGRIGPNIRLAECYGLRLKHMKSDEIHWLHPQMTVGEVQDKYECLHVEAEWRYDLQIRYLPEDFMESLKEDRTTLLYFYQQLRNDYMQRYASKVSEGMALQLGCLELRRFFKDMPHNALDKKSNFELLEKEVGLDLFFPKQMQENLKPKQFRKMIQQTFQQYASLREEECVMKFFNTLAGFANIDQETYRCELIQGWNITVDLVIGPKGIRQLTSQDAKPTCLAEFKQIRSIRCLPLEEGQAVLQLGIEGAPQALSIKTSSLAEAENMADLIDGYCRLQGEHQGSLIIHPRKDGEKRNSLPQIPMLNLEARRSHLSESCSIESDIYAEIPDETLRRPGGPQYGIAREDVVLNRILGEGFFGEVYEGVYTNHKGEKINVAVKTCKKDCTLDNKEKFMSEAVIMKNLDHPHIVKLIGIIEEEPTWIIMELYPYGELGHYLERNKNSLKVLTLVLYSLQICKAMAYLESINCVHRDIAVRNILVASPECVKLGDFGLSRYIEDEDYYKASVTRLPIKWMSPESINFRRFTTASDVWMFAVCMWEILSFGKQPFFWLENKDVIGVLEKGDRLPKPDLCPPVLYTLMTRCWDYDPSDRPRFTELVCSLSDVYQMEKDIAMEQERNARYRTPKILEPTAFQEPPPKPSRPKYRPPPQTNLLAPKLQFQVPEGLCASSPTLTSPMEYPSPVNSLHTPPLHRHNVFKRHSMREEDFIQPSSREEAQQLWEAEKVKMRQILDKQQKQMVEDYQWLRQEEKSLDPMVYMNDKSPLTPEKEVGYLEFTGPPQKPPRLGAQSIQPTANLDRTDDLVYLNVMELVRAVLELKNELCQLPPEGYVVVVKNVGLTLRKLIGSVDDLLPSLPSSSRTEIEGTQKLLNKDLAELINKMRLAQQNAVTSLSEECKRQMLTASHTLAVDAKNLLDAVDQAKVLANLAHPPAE

[4] = target: T4, TNK2 (ACK1, Activated Cdc42-associated kinase) (Homo sapiens, UniProt Q07912); test: NanoBRET TE intracellular kinase assay with K-10 tracer in HEK293T cells
T4 construct: NanoLuc fusion (Promega NV4451)
T4 sequence (Q07912 whole entry, the tested form may be a part): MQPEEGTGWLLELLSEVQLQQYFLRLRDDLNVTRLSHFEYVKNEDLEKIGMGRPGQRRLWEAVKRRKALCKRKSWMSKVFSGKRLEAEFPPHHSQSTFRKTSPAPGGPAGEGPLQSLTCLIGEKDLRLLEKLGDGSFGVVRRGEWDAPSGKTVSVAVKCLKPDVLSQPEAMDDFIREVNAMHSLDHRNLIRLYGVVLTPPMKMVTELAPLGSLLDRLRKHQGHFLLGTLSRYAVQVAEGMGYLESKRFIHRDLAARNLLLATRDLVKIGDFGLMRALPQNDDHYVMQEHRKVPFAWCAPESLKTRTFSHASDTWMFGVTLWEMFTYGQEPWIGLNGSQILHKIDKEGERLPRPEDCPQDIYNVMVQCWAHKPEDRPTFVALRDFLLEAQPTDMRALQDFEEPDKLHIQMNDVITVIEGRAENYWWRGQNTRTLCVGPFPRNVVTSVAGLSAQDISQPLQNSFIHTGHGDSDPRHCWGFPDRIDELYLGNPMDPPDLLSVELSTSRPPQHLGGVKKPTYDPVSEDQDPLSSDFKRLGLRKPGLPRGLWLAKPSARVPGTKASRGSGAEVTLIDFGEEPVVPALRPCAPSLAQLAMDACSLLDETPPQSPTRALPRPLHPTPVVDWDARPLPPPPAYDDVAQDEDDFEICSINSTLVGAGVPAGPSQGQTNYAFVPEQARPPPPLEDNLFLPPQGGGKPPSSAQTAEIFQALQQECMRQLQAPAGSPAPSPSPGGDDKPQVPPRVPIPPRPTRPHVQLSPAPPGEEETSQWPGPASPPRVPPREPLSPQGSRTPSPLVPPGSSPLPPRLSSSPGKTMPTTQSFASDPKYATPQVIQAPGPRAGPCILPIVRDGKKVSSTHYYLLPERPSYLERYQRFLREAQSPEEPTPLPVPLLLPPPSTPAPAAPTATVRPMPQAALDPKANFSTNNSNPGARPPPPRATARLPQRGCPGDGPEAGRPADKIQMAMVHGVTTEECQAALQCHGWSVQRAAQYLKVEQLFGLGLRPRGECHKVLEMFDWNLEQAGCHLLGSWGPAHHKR

T1 sequence (Q05397 2-1052): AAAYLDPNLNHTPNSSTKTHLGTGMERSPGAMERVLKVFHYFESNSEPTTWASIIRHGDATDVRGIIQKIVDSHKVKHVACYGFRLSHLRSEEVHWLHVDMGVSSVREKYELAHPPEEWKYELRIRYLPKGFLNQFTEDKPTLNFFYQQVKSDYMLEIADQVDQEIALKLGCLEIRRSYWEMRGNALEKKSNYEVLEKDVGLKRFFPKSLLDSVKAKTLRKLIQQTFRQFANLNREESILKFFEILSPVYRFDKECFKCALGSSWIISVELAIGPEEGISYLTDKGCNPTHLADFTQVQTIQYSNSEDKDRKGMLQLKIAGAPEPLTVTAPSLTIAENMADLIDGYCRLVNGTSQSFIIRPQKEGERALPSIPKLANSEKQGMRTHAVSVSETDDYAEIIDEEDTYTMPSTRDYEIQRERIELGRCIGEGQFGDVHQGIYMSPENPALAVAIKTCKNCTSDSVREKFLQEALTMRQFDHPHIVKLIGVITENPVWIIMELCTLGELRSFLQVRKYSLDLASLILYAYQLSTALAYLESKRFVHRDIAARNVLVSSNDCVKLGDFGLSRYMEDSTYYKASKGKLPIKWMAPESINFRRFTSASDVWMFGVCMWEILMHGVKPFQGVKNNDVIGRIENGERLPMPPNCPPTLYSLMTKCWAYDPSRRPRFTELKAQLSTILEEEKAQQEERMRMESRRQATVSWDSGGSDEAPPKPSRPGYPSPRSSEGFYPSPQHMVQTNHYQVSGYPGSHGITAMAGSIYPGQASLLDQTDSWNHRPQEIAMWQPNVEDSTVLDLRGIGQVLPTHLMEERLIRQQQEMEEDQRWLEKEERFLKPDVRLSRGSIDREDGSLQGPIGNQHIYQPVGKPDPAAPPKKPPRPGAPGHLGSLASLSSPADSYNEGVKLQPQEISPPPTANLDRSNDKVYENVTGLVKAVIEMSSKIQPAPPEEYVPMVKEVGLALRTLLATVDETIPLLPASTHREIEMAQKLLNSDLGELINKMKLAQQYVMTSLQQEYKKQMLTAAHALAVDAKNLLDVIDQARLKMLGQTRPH

Question: How did the IC50 [1] turn out when `COc1cc(N2CCC(N3CCN(C)CC3)CC2)ccc1Nc1ncc(Cl)c(Nc2ccccc2P(C)(C)=O)n1` [brigatinib] was run?
Answer: 573 nM

Question: What about the IC50 [2] of the same compound?
Answer: 304 nM

Question: What about the IC50 [3] of the same compound?
Answer: 155 nM

Question: What about the “MIB/MS kinome profiling, HS01/HS11 Schwann cells, 1 uM (text: lysate treatment;)” value (FAK2 (PTK2B)) of the same compound?
Answer: kinases with the largest reduction in binding were FER, TNK2, FAK1 (PTK2) and FAK2 (PTK2B)

Question: What about the IC50 [4] of the same compound?
Answer: 350 nM
